Laboratory results as given in patent US8314255B2, “Use of phthalimide and/or sulphonamide derivatives in the treatment of diseases which require reducing the TNF- α levels and an exogenous source of nitric oxide, phthalimide derivatives, sulphonamide derivatives, and a method for obtaining a sulphonamide derivative” (priority 2007, dated 2012).

Assays:
[1] = system: Salmonella typhimurium TA100; assay: AMES test, mutagenic evaluation in Salmonella typhimurium TA100 strain with/without metabolic activation (S9); type: cell-based
Method: (§1) The procedure was firstly developed by (MARON, D. M. and AMES, B. N. Mut. Res. v. 113, pp. 173-215, 1983)
(§2) For this assay, Salmonella typhimurium TA100 and TA102 strains from the mutagenicity laboratory of the “Faculdade de Ciências Farmacêuticas—UNESP Araraquara” were used. Such strains have the following characteristics: (AMES, 1983)
(§3) The positive controls are mutagenic compounds specific for each strain and test condition, with 25 μL/plate of sodium azide (1.25 μg/plate) and 100 μL of mitomycin (0.5 μg/plate) being the controls for TA100 and TA102, respectively, in the absence of metabolic activation. For assays with metabolic activation, the positive control for TA100 is 50 μL 2-antramine (1.25 μg/plate) and for TA102 it is 50 μL 2-aminofluorene (1.25 μg/plate).
(§4) The preincubation method was used.
(§5) In laminar flow, Salmonella typhimurium (TA100 and TA 102) strains were inoculated individually with a platinum loop, in the respective nutrient broths and maintained at 37° C., under constant stirring (160 rpm) during 14 hours, in order to achieve a density of 1 to 2×10^9 bacteria/mL.
(§6) Different concentrations of the compounds were added into 100 μL of 0.2M phosphate buffer pH 7.4 (or 500 μL of the mixture S9 in metabolic activation assays) and incubated for 20-30 minutes at 37° C. Solutions containing the compounds had DMSO as the solvent. Thereafter, 2 mL of top agar supplemented with traces of histidine and biotin was added, homogenized and plated in glycosylated minimum medium. After solidification of the top agar, the plates were incubated for 48 hours at a 37° C. Then, the counting of the number of revertant colonies per plate was performed. All tested concentrations, positive and negative controls were run in triplicate.
(§7) After 48 hours, the revertant colonies were counted manually, and the protoCOL Colony Counter Version 3.15.630 (1998-2001) SYNBIOSIS LTD system was used for the positive control.
(§8) The final data obtained from the assay was analyzed using the statistical software Salanal (Salmonella Assay Analysis) version 1.0 from the Research Triangle Institute, RTP, North Carolina, USA. Such software allows the dose-response effect to be evaluated by means of analysis of variance (ANOVA-test F) computations between the measurement of the number of revertants at the different tested concentrations (doses) and the negative control, followed by a linear regression. The software model chosen for analyzing the data was Bernstein's (BERNSTEIN, L. et al. Mutat. Res. v. 97, p. 267-281, 1982). The slope of the straight line from the linear portion of the dose-response curve is also provided by this software and corresponds to the number of revertants induced per measurement unit of the analyzed sample.
(§9) From the results, the mutagenicity ratio (MR) was computed for each analyzed dose from each compound. MR is given by the following equation:
(§10) MR=average number of revertants per test plate (spontaneous+induced revertants) […] average number of revertants per plate of the negative control (spontaneous revertants)
(§11) The spontaneous growing means that the number of revertants which developed on the plate, regardless of being induced or not, wherein values higher or equal to 2 are considered as a positive response (VALENT, G. V. et al. Env. Toxicol. Water Quality. v. 8, p. 371-381, 1993).
(§12) The mutagenicity test with metabolic activation system was performed with a microsomal fraction S9 (S9 mix) prepared from a liver homogenizate from Sprague Dawley rats, previously treated with Aroclor 1254, acquired in the freeze-dried form.
(§13) The procedure for this assay is the same, however, instead of the buffer, 500 μL of the S9 mixture should be added.
(§14) The S9 mixture has a viability of 4 hours from preparation when put on ice. The plates are then incubated for 48 hours at 37° C. After the required time has elapsed, the counting of the revertant colonies was carried out. All tested concentrations, positive and negative controls were run in triplicate.

[2] = system: Salmonella typhimurium TA102; assay: AMES test, mutagenic evaluation in Salmonella typhimurium TA102 strain with/without metabolic activation (S9); type: cell-based
Method: as §1, §2, §3, §4, §5, §6, §7, §8, §9, §10, §11, §12, §13, §14

[3] = system: abdominal writhing induced by acetic acid; assay: Abdominal writhing assay induced by acetic acid; type: in vivo; details: oral, mice, acetic acid 0.1N i.p. after 1 hour, writhings counted during 20 minutes
Method: In order to evaluate the peripheral analgesic activity of the compounds, an abdominal writhing assay induced by acetic acid (Table 6) was carried out. In this assay, we could infer that compound ID has an important analgesic activity, inhibiting abdominal writhing by 66%. […] The analgesic activity may be related to the ability of these compounds to inhibit the cytokine TNFα, since it is known that this would be one of the mechanisms that explain the analgesia of molecules such as thalidomide.
The antinociceptive profile was evaluated through the abdominal writhing assay induced by acetic acid in mice. In this assay, Swiss mice from both genders were used, weighing from 21 to 28 grams, fasted for a time period of about 8 hours. The test substance was administered orally and had, as a carrier, 5% gum arabic. After 1 hour, the administration of acetic acid 0.1N (0.1 mL/10 g weight) was performed in the peritoneal cavity of the animals. Ten minutes after the injection of acetic acid, writhings were counted during 20 minutes.

Compound: O=C1c2ccccc2C(=O)N1CO[N+](=O)[O-] [Compound IA, (1,3-dioxo-1,3-dihydro-2H-isoindol-2-yl)methyl nitrate]
- mutagenicity ratio (MR) ([1]; TA 100, +S9, 7.25 nmol/plate): 1.19
- number of revertants per plate ([1]; TA 100, +S9, 7.25 nmol/plate): 154 ± 14.2 revertants/plate
- mutagenicity ratio (MR) ([1]; TA 100, +S9, 14.5 nmol/plate): 1.19
- number of revertants per plate ([1]; TA 100, +S9, 14.5 nmol/plate): 155 ± 5.9 revertants/plate
- mutagenicity ratio (MR) ([1]; TA 100, +S9, 29 nmol/plate): 1.08
- number of revertants per plate ([1]; TA 100, +S9, 29 nmol/plate): 140.3 ± 2 revertants/plate
- mutagenicity ratio (MR) ([1]; TA 100, +S9, 56 nmol/plate): 0.97
- number of revertants per plate ([1]; TA 100, +S9, 56 nmol/plate): 126.3 ± 8.1 revertants/plate
- mutagenicity ratio (MR) ([1]; TA 100, +S9, 112 nmol/plate): 1.03
- number of revertants per plate ([1]; TA 100, +S9, 112 nmol/plate): 133.3 ± 11 revertants/plate
- mutagenicity ratio (MR) ([1]; TA 100, −S9, 7.25 nmol/plate): 1.03
- number of revertants per plate ([1]; TA 100, −S9, 7.25 nmol/plate): 140.5 ± 17 revertants/plate
- mutagenicity ratio (MR) ([1]; TA 100, −S9, 14.5 nmol/plate): 1.18
- number of revertants per plate ([1]; TA 100, −S9, 14.5 nmol/plate): 161.7 ± 11 revertants/plate
- mutagenicity ratio (MR) ([1]; TA 100, −S9, 29 nmol/plate): 0.9
- number of revertants per plate ([1]; TA 100, −S9, 29 nmol/plate): 122.7 ± 3.06 revertants/plate
- mutagenicity ratio (MR) ([1]; TA 100, −S9, 56 nmol/plate): 1.71
- number of revertants per plate ([1]; TA 100, −S9, 56 nmol/plate): 234 ± 39.5 revertants/plate
- mutagenicity ratio (MR) ([1]; TA 100, −S9, 112 nmol/plate): 2.45
- number of revertants per plate ([1]; TA 100, −S9, 112 nmol/plate): 335 ± 15.7 revertants/plate
- concentration above which toxicity is observed (reduction on the number of revertants per plate) ([2]; TA102 (+S9)): higher than 56 nmol
- mutagenicity ratio (MR) ([2]; TA 102, +S9, 7.25 nmol/plate): 1.4
- number of revertants per plate ([2]; TA 102, +S9, 7.25 nmol/plate): 298 ± 11.3 revertants/plate
- mutagenicity ratio (MR) ([2]; TA 102, +S9, 14.5 nmol/plate): 1.5
- number of revertants per plate ([2]; TA 102, +S9, 14.5 nmol/plate): 320.8 ± 17 revertants/plate
- mutagenicity ratio (MR) ([2]; TA 102, +S9, 29 nmol/plate): 1.8
- number of revertants per plate ([2]; TA 102, +S9, 29 nmol/plate): 385 ± 21.8 revertants/plate
- mutagenicity ratio (MR) ([2]; TA 102, +S9, 56 nmol/plate): 2.34
- number of revertants per plate ([2]; TA 102, +S9, 56 nmol/plate): 499 ± 8.9 revertants/plate
- mutagenicity ratio (MR) ([2]; TA 102, +S9, 112 nmol/plate): 1.64
- number of revertants per plate ([2]; TA 102, +S9, 112 nmol/plate): 351.2 ± 12 revertants/plate
- mutagenicity ratio (MR) ([2]; TA 102, −S9, 7.25 nmol/plate): 1.33
- number of revertants per plate ([2]; TA 102, −S9, 7.25 nmol/plate): 263.7 ± 15 revertants/plate
- mutagenicity ratio (MR) ([2]; TA 102, −S9, 14.5 nmol/plate): 1.26
- number of revertants per plate ([2]; TA 102, −S9, 14.5 nmol/plate): 249.7 ± 12 revertants/plate
- mutagenicity ratio (MR) ([2]; TA 102, −S9, 29 nmol/plate): 1.32
- number of revertants per plate ([2]; TA 102, −S9, 29 nmol/plate): 261.3 ± 20 revertants/plate
- mutagenicity ratio (MR) ([2]; TA 102, −S9, 56 nmol/plate): 0.77
- number of revertants per plate ([2]; TA 102, −S9, 56 nmol/plate): 153 ± 21 revertants/plate
- mutagenicity ratio (MR) ([2]; TA 102, −S9, 112 nmol/plate): 0.71
- number of revertants per plate ([2]; TA 102, −S9, 112 nmol/plate): 141 ± 18 revertants/plate
- Average (abdominal writhings) [3]: 28.6

Compound: O=C1c2ccccc2C(=O)N1c1ccc(CCO[N+](=O)[O-])cc1 [Compound IE, 2-[4-(1,3-dioxo-1,3-dihydro-2H-isoindol-2-yl)phenyl]ethyl nitrate]
- mutagenicity ratio (MR) ([1]; TA 100, +S9, 0.12 μmol/plate): 2.8
- number of revertants per plate ([1]; TA 100, +S9, 0.12 μmol/plate): 363 ± 25.2 revertants/plate
- mutagenicity ratio (MR) ([1]; TA 100, +S9, 0.25 μmol/plate): 3.7
- number of revertants per plate ([1]; TA 100, +S9, 0.25 μmol/plate): 478.7 ± 4.22 revertants/plate
- mutagenicity ratio (MR) ([1]; TA 100, +S9, 0.5 μmol/plate): 4.86
- number of revertants per plate ([1]; TA 100, +S9, 0.5 μmol/plate): 628 ± 40.8 revertants/plate
- mutagenicity ratio (MR) ([1]; TA 100, +S9, 1 μmol/plate): 5.72
- number of revertants per plate ([1]; TA 100, +S9, 1 μmol/plate): 739 ± 25.4 revertants/plate
- mutagenicity ratio (MR) ([1]; TA 100, +S9, 2 μmol/plate): 5.79
- number of revertants per plate ([1]; TA 100, +S9, 2 μmol/plate): 750 ± 13.6 revertants/plate
- mutagenicity ratio (MR) ([1]; TA 100, −S9, 0.12 μmol/plate): 1.04
- number of revertants per plate ([1]; TA 100, −S9, 0.12 μmol/plate): 143.3 ± 5 revertants/plate
- mutagenicity ratio (MR) ([1]; TA 100, −S9, 0.25 μmol/plate): 0.99
- number of revertants per plate ([1]; TA 100, −S9, 0.25 μmol/plate): 135.3 ± 12 revertants/plate
- mutagenicity ratio (MR) ([1]; TA 100, −S9, 0.5 μmol/plate): 0.99
- number of revertants per plate ([1]; TA 100, −S9, 0.5 μmol/plate): 136.3 ± 13 revertants/plate
- mutagenicity ratio (MR) ([1]; TA 100, −S9, 1 μmol/plate): 0.89
- number of revertants per plate ([1]; TA 100, −S9, 1 μmol/plate): 121.5 ± 14 revertants/plate
- mutagenicity ratio (MR) ([1]; TA 100, −S9, 2 μmol/plate): 1.30
- number of revertants per plate ([1]; TA 100, −S9, 2 μmol/plate): 177 ± 23.6 revertants/plate
- mutagenicity ratio (MR) ([2]; TA 102, +S9, 0.12 μmol/plate): 0.9
- number of revertants per plate ([2]; TA 102, +S9, 0.12 μmol/plate): 335.3 ± 11 revertants/plate
- mutagenicity ratio (MR) ([2]; TA 102, +S9, 0.25 μmol/plate): 0.8
- number of revertants per plate ([2]; TA 102, +S9, 0.25 μmol/plate): 295.3 ± 28 revertants/plate
- mutagenicity ratio (MR) ([2]; TA 102, +S9, 0.5 μmol/plate): 1.09
- number of revertants per plate ([2]; TA 102, +S9, 0.5 μmol/plate): 406 ± 14.1 revertants/plate
- mutagenicity ratio (MR) ([2]; TA 102, +S9, 1 μmol/plate): 1.25
- number of revertants per plate ([2]; TA 102, +S9, 1 μmol/plate): 465 ± 10.6 revertants/plate
- mutagenicity ratio (MR) ([2]; TA 102, +S9, 2 μmol/plate): 1.2
- number of revertants per plate ([2]; TA 102, +S9, 2 μmol/plate): 447 ± 19.8 revertants/plate
- mutagenicity ratio (MR) ([2]; TA 102, −S9, 0.12 μmol/plate): 1.29
- number of revertants per plate ([2]; TA 102, −S9, 0.12 μmol/plate): 256 ± 6.9 revertants/plate
- mutagenicity ratio (MR) ([2]; TA 102, −S9, 0.25 μmol/plate): 1.32
- number of revertants per plate ([2]; TA 102, −S9, 0.25 μmol/plate): 262 ± 19.1 revertants/plate
- mutagenicity ratio (MR) ([2]; TA 102, −S9, 0.5 μmol/plate): 1.35
- number of revertants per plate ([2]; TA 102, −S9, 0.5 μmol/plate): 266.7 ± 18 revertants/plate
- mutagenicity ratio (MR) ([2]; TA 102, −S9, 1 μmol/plate): 1.34
- number of revertants per plate ([2]; TA 102, −S9, 1 μmol/plate): 265.7 ± 10 revertants/plate
- mutagenicity ratio (MR) ([2]; TA 102, −S9, 2 μmol/plate): 1.02
- number of revertants per plate ([2]; TA 102, −S9, 2 μmol/plate): 201 ± 4.7 revertants/plate
